From patent US5350864A, “Aminoalkylcarbamyl derivatives of forskolin as intermediates for the synthesis of useful forskolin derivatives” (The United States of America as represented by the …, priority 1990, dated 1994)
“Also recorded” adds a separate entry of the source. Read-outs that look alike come from different tables or passages of the source.

Key:
[1] = target: T1, glucose transporter (Homo sapiens, UniProt P11166); assay: Filtration binding assay, ^125 I-labelled derivative 8 (7-^125 I-HPP-Fsk) to human red blood cell membranes
T1 construct: Crude membranes from human red blood cells; from tissue; host or cells: human red blood cells, membranes
T1 sequence (P11166 1-492): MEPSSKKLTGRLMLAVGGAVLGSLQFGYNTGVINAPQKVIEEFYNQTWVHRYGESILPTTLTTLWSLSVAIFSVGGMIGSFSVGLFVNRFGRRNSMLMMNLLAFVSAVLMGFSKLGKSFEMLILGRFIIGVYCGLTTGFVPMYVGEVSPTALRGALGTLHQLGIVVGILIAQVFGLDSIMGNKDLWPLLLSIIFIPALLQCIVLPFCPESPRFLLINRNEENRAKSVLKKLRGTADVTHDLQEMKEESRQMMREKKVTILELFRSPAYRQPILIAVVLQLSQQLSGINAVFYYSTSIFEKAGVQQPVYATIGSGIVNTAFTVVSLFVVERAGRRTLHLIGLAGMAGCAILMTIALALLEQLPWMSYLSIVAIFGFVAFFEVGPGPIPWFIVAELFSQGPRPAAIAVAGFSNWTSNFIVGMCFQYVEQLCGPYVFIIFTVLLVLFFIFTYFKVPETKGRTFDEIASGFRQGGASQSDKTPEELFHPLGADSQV
Method: Binding of 7-^125 IHPP-Fsk to Membranes--Crude membranes from human red blood cells were incubated for 60 minutes at 20° C. with 20,000 cpm of 7-^125 IHPP-Fsk. […] The incubations were carried out at 20° C. for 60 minutes in 12×75 glass test tubes in a total volume of 0.4 mL 50 mM Tris-HCl buffer, pH 7.4. The assay was terminated by the addition of 4 mL of cold Tris-HCl buffer to the tubes at rapid filtration over Whatman GF/C filters using a Brandel cell harvester. The assay was terminated as described above and the filters counted in a gamma counter. The nonspecific binding was calculated as the amount of label not displaced by 20 μM forskolin.

[2] = system: adenylate cyclase; conditions: literature; cited from earlier work
[3] = system: adenylate cyclase; assay: Photolabelling of partially purified bovine brain adenylate cyclase, SDS gel electrophoresis; format: binding
Method: (§1) Derivative 20 (6-AIPPS-Fsk) is incubated with partially purified preparations of bovine brain adenylate cyclase, photolyzed, and then the radioactive proteins are analyzed by SDS gel electrophoresis. […] 6-AIPPS-Fsk can also label adenylate cyclase in crude membranes. 6-AIPPS-Fsk is incubated with bovine brain membranes, photolyzed, and the radioactive proteins are analyzed by SDS gel electrophoresis.

[4] = system: adenylate cyclase; assay: Photolabelling of bovine brain membranes, SDS gel electrophoresis; format: binding
Method: as §1

[5] = target: P-glycoprotein (Homo sapiens, UniProt P08183)
[6] = target: T1, glucose transporter; assay: Photolabelling of human red blood cell membranes, SDS gel electrophoresis; format: binding
Method: Derivative 9 (7-AIPPS-Fsk) is incubated with human red blood cell membranes, photolyzed, and then the radioactive proteins were analyzed by SDS gel electrophoresis.

[7] = system: glucose transporter; assay: Binding of 7-^125 I-HPP-Fsk to bovine brain
Text: (§2) 7-^125 I-HPP-Fsk also binds with high affinity to other tissues including bovine brain, rat heart, rat muscle, and human platelets. The binding of 7-^125 I-HPP-Fsk to these tissues is inhibited by D-glucose and cytochalasin B. Therefore, 7-^125 I-HPP-Fsk binds with high affinity to the glucose transporter in diverse tissues.

[8] = system: glucose transporter; assay: Binding of 7-^125 I-HPP-Fsk to rat heart
Text: as §2

[9] = system: glucose transporter; assay: Binding of 7-^125 I-HPP-Fsk to rat muscle
Text: as §2

[10] = target: T2, glucose transporter (Homo sapiens, UniProt P11169); assay: Binding of 7-^125 I-HPP-Fsk to human platelets
T2 construct: other tissues including bovine brain, rat heart, rat muscle, and human platelets; from tissue; host or cells: human platelets
T2 sequence (P11169 1-496): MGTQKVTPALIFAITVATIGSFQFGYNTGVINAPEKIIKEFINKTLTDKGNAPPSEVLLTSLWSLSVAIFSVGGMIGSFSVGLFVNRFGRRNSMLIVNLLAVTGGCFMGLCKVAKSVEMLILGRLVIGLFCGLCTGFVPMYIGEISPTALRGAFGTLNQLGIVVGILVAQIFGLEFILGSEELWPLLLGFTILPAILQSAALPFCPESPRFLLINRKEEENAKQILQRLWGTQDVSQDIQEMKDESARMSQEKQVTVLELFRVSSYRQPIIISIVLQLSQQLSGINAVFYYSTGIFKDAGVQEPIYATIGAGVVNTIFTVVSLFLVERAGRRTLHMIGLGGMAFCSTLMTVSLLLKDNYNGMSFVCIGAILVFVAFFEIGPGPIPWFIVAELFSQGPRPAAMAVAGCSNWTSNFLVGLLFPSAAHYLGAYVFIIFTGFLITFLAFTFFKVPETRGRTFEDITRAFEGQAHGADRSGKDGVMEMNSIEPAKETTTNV
Text: as §2

[11] = system: adenylate cyclase; assay: Filtration binding assay, ^125 I-labelled derivative 19 (6-^125 I-HPP-Fsk) to bovine brain membranes; conditions: bovine brain membranes, 20° C., 60 min
Text: Derivative 19 (6-^125 I-HPP-Fsk) was used to develop a binding assay for adenylate cyclase (Example 4). […] Therefore, a filtration assay can be used to separate the bound from free ligand and determine the amount of high affinity binding. […] Analogs of forskolin that activate adenylate cyclase inhibit the binding of 6-^125 I-HPP-Fsk to membranes. The ability of an agent to inhibit 6-^125 I-HPP-Fsk binding to membranes is therefore indicative of its ability to stimulate adenylate cyclase.
Binding of 6-^125 I-HPP-Fsk to Membranes--Crude membranes from bovine brain were incubated for 60 minutes at […] 20° C. with 20,000 cpm of 6-^125 I-HPP-Fsk. Binding equilibrium was reached by 45 minutes and was constant for at least 2 hours (data not shown). The incubations were carried out at 20° C. for 60 minutes in 12×75 glass test tubes in a total volume of 0.4 mL […] Tris-HCl buffer, pH 7.4. The membranes (0.40 mg/tube) were incubated in the presence of 5 mM MgCl2 and 10 mM NaF. The assay was terminated by the addition of 5 mL of cold Tris-HCl buffer to the tubes and rapid filtration over Whatman GF/C filters using a Brandel cell harvester. The assay was terminated as described above and the filters counted in a gamma counter. The nonspecific binding was calculated as the amount of label not displaced by 20 uM forskolin. The non specific binding was about 20% of the total bound.

[12] = system: adenylate cyclase; conditions: literature; cited from earlier work; remark: listed apart in the source
[13] = mildly basic conditions; literature; cited from earlier work
[14] = system: bovine brain adenylate cyclase; assay: Activation of bovine brain adenylate cyclase; format: biochemical; conditions: relative to forskolin
[15] = Water solubility; format: physicochemical; conditions: relative to forskolin

Sequence of P-glycoprotein (P08183 whole entry): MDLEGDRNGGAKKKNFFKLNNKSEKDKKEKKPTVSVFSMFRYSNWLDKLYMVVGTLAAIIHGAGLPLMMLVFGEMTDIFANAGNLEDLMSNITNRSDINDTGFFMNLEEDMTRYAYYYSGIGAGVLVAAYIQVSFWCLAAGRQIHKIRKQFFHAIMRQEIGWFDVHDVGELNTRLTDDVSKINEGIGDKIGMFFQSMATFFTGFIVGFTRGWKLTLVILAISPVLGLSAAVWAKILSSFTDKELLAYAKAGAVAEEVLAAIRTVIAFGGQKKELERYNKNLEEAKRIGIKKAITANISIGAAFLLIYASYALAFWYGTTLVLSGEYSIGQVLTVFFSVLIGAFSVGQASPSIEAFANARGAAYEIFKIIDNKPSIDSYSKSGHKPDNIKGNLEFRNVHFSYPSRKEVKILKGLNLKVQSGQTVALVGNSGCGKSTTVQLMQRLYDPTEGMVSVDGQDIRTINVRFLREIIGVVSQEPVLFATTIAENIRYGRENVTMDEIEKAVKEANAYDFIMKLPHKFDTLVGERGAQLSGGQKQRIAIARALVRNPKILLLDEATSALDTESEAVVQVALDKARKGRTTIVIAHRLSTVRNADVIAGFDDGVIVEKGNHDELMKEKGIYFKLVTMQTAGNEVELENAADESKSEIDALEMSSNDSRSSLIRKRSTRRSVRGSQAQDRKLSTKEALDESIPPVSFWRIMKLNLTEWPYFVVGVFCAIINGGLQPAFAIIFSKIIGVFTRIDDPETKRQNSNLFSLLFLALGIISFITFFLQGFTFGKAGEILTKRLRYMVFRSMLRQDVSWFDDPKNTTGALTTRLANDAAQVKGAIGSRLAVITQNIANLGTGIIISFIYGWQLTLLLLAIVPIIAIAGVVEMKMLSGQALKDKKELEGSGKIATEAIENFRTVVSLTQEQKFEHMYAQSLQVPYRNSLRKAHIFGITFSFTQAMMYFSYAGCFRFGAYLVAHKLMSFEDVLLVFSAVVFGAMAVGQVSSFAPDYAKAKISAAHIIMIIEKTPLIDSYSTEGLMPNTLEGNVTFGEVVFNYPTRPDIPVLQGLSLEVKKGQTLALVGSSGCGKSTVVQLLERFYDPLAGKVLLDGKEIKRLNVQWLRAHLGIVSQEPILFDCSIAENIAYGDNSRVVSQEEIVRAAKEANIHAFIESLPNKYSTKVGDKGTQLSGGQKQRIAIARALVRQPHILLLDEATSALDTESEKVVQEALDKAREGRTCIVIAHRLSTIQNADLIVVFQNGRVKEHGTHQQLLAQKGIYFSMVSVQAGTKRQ

OC[C@@H]1OC(O)[C@@H](O)[C@H](O)[C@H]1O (stereo partly drawn) [L-glucose]
inhibition of 7-^125 I-HPP-Fsk binding [1]: not L-glucose

C=C[C@@]1(C)CC(=O)[C@]2(O)[C@@]3(C)[C@@H](O)CCC(C)(C)[C@@H]3[C@H](O)[C@H](O)[C@@]2(C)O1 [7-desacetylforskolin]
activation of adenylate cyclase [2]: less potent than forskolin

C=C[C@@]1(C)CC(=O)[C@]2(O)[C@@]3(C)[C@@H](O)CCC(C)(C)[C@@H]3[C@H](OC(C)=O)[C@H](O)[C@@]2(C)O1 [6-acetyl-7-desacetylforskolin]
activation of adenylate cyclase [2]: less potent than forskolin

C=C[C@@]1(C)CC(=O)[C@]2(O)[C@@]3(C)[C@@H](O)CCC(C)(C)[C@@H]3[C@H](OC(=O)NCCNC(=O)CCc3ccc(N=[N+]=[N-])c([125I])c3)[C@H](OC(C)=O)[C@@]2(C)O1 [Derivative 20]
photolabelling of adenylate cyclase [3]: covalently incorporated into the adenylate cyclase
photolabelling of adenylate cyclase [4]: labels the adenylate cyclase in bovine brain membranes
photolabelling of P-glycoprotein [5]: labelled

C=C[C@@]1(C)CC(=O)[C@]2(O)[C@@]3(C)[C@@H](O)CCC(C)(C)[C@@H]3[C@H](O)[C@H](OC(=O)NCCNC(=O)CCc3ccc(N=[N+]=[N-])c([125I])c3)[C@@]2(C)O1 [Derivative 9]
photolabelling of glucose transporter ([6]; listed as 7-AIPPS-Fsk): labels the glucose transporter; also recorded: more potent at labelling the glucose transporter in human red blood cell membranes than 6-AIPPS-Fsk
photolabelling of adenylate cyclase [4]: less efficient at labelling the adenylate cyclase than the 6-AIPPS-Fsk

C=C[C@@]1(C)CC(=O)[C@]2(O)[C@@]3(C)[C@@H](O)CCC(C)(C)[C@@H]3[C@H](O)[C@H](OC(=O)NCCNC(=O)CCc3ccc(O)c([125I])c3)[C@@]2(C)O1 [Derivative 8]
time binding was constant ([1]; 20° C.): at least 2 hours
time to binding equilibrium ([1]; 20° C.): ≤ 45 min
binding affinity / selectivity ([1]; human red blood cell glucose transporter, listed as 7-^125 I-HPP-Fsk): binds to the human red blood cell glucose transporter with high affinity; also recorded: will not detect adenylate cyclase
nonspecific binding (of total bound) ([1]; label not displaced by 20 μM forskolin): about 20%
Kd ([1]; membranes from human red blood cells, read-out: affinity of 7-^125 I-HPP-Fsk): 30 nM
binding affinity [7]: high affinity
binding affinity [8]: high affinity
binding affinity [9]: high affinity
binding affinity [10]: high affinity

O=C(CCc1ccc(O)cc1)c1c(O)cc(O)cc1O[C@@H]1O[C@H](CO)[C@@H](O)[C@H](O)[C@H]1O [phloridzin]
inhibition of 7-^125 I-HPP-Fsk binding ([1]; human red blood cell membranes): relatively potent

OC[C@H]1OC(O)[C@H](O)[C@@H](O)[C@@H]1O (stereo partly drawn) [D-glucose]
inhibition of 6-^125 I-HPP-Fsk binding [11]: not inhibited
inhibition of 7-^125 I-HPP-Fsk binding [1]: inhibited; also recorded: inhibition of binding
inhibition of 7-^125 I-HPP-Fsk binding [7]: inhibited
inhibition of 7-^125 I-HPP-Fsk binding [8]: inhibited
inhibition of 7-^125 I-HPP-Fsk binding [9]: inhibited
inhibition of 7-^125 I-HPP-Fsk binding [10]: inhibited
inhibition of labelling by 7-AIPPS-Fsk [6]: inhibited

C=C[C@@]1(C)CC(=O)[C@]2(O)[C@@]3(C)[C@@H](O)CCC(C)(C)[C@@H]3[C@H](OC(=O)NCCNC(=O)CCc3ccc(O)cc3)[C@H](OC(C)=O)[C@@]2(C)O1 [Derivative 21]
inhibition of labelling by 6-AIPPS-Fsk [5]: more potent at inhibiting the labelling by 6-AIPPS-Fsk than forskolin

C=C[C@@]1(C)CC(=O)[C@]2(O)[C@@]3(C)[C@@H](O)CCC(C)(C)[C@@H]3[C@H](O)[C@H](OC(=O)CCl)[C@@]2(C)O1 [7-desacetyl-7-chloroacetylforskolin]
block of forskolin binding site [12]: block the forskolin binding site on adenylate cyclase
susceptibility to hydrolysis and rearrangement [13]: susceptible to hydrolysis and rearrangement under mildly basic conditions

C=C[C@@]1(C)CC(=O)[C@]2(O)[C@@]3(C)[C@@H](O)CCC(C)(C)[C@@H]3[C@H](O)[C@H](OC(=O)CC)[C@@]2(C)O1 [7-desacetyl-7-propionylforskolin]
activation of adenylate cyclase [2]: active at adenylate cyclase

C=C[C@@]1(C)CC(O)[C@]2(O)[C@@]3(C)[C@@H](O)CCC(C)(C)[C@@H]3[C@H](O)[C@H](OC(C)=O)[C@@]2(C)O1 (stereo partly drawn) [11β-hydroxyforskolin]
activation of adenylate cyclase [2]: less potent than forskolin

CC[C@@]1(C)CC(=O)[C@]2(O)[C@@]3(C)[C@@H](O)CCC(C)(C)[C@@H]3[C@H](O)[C@H](OC(C)=O)[C@@]2(C)O1 [14,15-dihydroforskolin]
activation of adenylate cyclase [2]: less potent than forskolin

C=C[C@@]1(C)CC(=O)[C@]2(O)[C@@]3(C)[C@@H](O)CCC(C)(C)[C@@H]3[C@H](O)[C@H](OC(=O)CBr)[C@@]2(C)O1 [7-descacetyl-7-bromoacetylforskolin]
block of forskolin binding site [12]: block the forskolin binding site on adenylate cyclase
susceptibility to hydrolysis and rearrangement [13]: susceptible to hydrolysis and rearrangement under mildly basic conditions

C=C[C@@]1(C)CC(=O)[C@]2(O)[C@@]3(C)[C@@H](O)CCC(C)(C)[C@@H]3[C@H](OC(=O)NCCN)[C@H](OC(C)=O)[C@@]2(C)O1 [Compound 4, 6-aminoethylcarbamylforskolin]
extent of stimulation of adenylate cyclase [14]: stimulate adenylate cyclase to a greater extent than forskolin
water solubility [15]: enhanced water solubility
